Measured values taken from article PMC8081663, “A biosensor for the direct visualization of auxin” (Nature, 2021).

Columns and labels:
Test in all cases: ITC, one-site model
Type in all cases: binding
[1] = target: T1, TrpR (Escherichia coli, UniProt P0A881, N87G/S88Y/T44L/T81M)
T1 construct: TrpR without fluorescent proteins, pET21b(+), expressed in E. coli BL21(DE3), NiIMAC and Superdex S75; homodimer; template Trp-CTY / Trp-CTYT sensors (Addgene 13533, 13534)
From the text: (§1) ITC, one-site model on TrpR

[2] = target: T2, TrpR (Escherichia coli, UniProt P0A881, S88Y/T44L)
T2 construct: TrpR without fluorescent proteins, pET21b(+), expressed in E. coli BL21(DE3), NiIMAC and Superdex S75; homodimer; template Trp-CTY / Trp-CTYT sensors (Addgene 13533, 13534)
From the text: as §1

[3] = target: T3, TrpR (Escherichia coli, UniProt P0A881, S88Y)
T3 construct: TrpR without fluorescent proteins, pET21b(+), expressed in E. coli BL21(DE3), NiIMAC and Superdex S75; homodimer; template Trp-CTY / Trp-CTYT sensors (Addgene 13533, 13534)
From the text: as §1

[4] = target: T4, TrpR (Escherichia coli, UniProt P0A881, M42F/N87G/S88Y/T44L/T81M)
T4 construct: TrpR without fluorescent proteins, pET21b(+), expressed in E. coli BL21(DE3), NiIMAC and Superdex S75; homodimer; template Trp-CTY / Trp-CTYT sensors (Addgene 13533, 13534)
From the text: as §1

[5] = target: T5, TrpR (Escherichia coli, UniProt P0A881)
T5 construct: TrpR without fluorescent proteins, pET21b(+), expressed in E. coli BL21(DE3), NiIMAC and Superdex S75; homodimer; template Trp-CTY / Trp-CTYT sensors (Addgene 13533, 13534)
From the text: as §1

[6] = target: T6, TrpR (Escherichia coli, UniProt P0A881, S88Y/T44L/T81M)
T6 construct: TrpR without fluorescent proteins, pET21b(+), expressed in E. coli BL21(DE3), NiIMAC and Superdex S75; homodimer; template Trp-CTY / Trp-CTYT sensors (Addgene 13533, 13534)
From the text: as §1

Row | Kd [5] [µM] | SMILES | Kd [1] [µM] | Kd [2] [µM] | Kd [3] [µM] | Kd [4] [µM] | Kd [6] [µM]
1 | 137.4 ± 0.5 | O=C(O)Cc1c[nH]c2ccccc12 [IAA] | 1.6 | 7.8 ± 0.3 | 14.6 ± 0.1 | 1.5 ± 0.1 | 3 ± 0.1
2 | 25 ± 0.7 | N[C@@H](Cc1c[nH]c2ccccc12)C(=O)O [TRP] | – | – | – | – | –

Row | SMILES | Kd [5] [µM] | Kd [1] [µM] | Kd [2] [µM] | Kd [3] [µM] | Kd [4] [µM] | Kd [6] [µM]
3 | N#CCc1c[nH]c2ccccc12 [IAN] | 63.7 ± 1.7 | 46.4 ± 1.7 | 19.5 ± 0.6 | 17.9 ± 0.6 | 14.3 ± 0.4 | 33.6 ± 0.2
